Test results reported in PubChem BioAssay (NCI).
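These data come from cells grown in 96-well plates and exposed to compound for 48 hours at five concentrations. GI50 is the concentration that inhibits growth by half. TGI marks complete inhibition of growth.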

How the values were obtained:
Assay in all cases: NCI-60 cell line screen, 48 h
A549 NSCLC = tested on: A549 NSCLC
HL-60(TB) leukemia = tested on: HL-60(TB) leukemia
M14 melanoma = tested on: M14 melanoma
RPMI-8226 leukemia = tested on: RPMI-8226 leukemia
OVCAR-4 ovarian = tested on: OVCAR-4 ovarian
MCF7 breast = tested on: MCF7 breast
SR leukemia = tested on: SR leukemia
PC-3 prostate = tested on: PC-3 prostate
MOLT-4 leukemia = tested on: MOLT-4 leukemia
KM12 colon = tested on: KM12 colon
CAKI-1 renal = tested on: CAKI-1 renal
K-562 leukemia = tested on: K-562 leukemia
ACHN renal = tested on: ACHN renal
HOP-62 NSCLC = tested on: HOP-62 NSCLC
NCI-H522 lung = tested on: NCI-H522 lung
HCT-116 colon = tested on: HCT-116 colon
OVCAR-8 ovarian = tested on: OVCAR-8 ovarian
HCT-15 colon = tested on: HCT-15 colon
CCRF-CEM leukemia = tested on: CCRF-CEM leukemia
NCI/ADR-RES ovarian = tested on: NCI/ADR-RES ovarian
SF-539 CNS = tested on: SF-539 CNS
HS 578T breast = tested on: HS 578T breast
BT-549 breast = tested on: BT-549 breast
DU-145 prostate = tested on: DU-145 prostate
SK-OV-3 ovarian = tested on: SK-OV-3 ovarian
NCI-H460 lung = tested on: NCI-H460 lung
SNB-19 CNS = tested on: SNB-19 CNS
MDA-MB-435 = tested on: MDA-MB-435
HOP-92 NSCLC = tested on: HOP-92 NSCLC
HT29 colon = tested on: HT29 colon
OVCAR-5 ovarian = tested on: OVCAR-5 ovarian
HCC-2998 colon = tested on: HCC-2998 colon
786-0 renal = tested on: 786-0 renal
SNB-75 CNS = tested on: SNB-75 CNS
UO-31 renal = tested on: UO-31 renal
LOX IMVI melanoma = tested on: LOX IMVI melanoma
SK-MEL-5 melanoma = tested on: SK-MEL-5 melanoma
MDA-MB-231 breast = tested on: MDA-MB-231 breast
SW-620 colon = tested on: SW-620 colon
IGROV1 ovarian = tested on: IGROV1 ovarian
U251 CNS = tested on: U251 CNS
NCI-H23 lung = tested on: NCI-H23 lung
RXF 393 renal = tested on: RXF 393 renal
COLO 205 colon = tested on: COLO 205 colon
SF-295 CNS = tested on: SF-295 CNS
A498 renal = tested on: A498 renal
EKVX NSCLC = tested on: EKVX NSCLC
SF-268 CNS = tested on: SF-268 CNS
TK-10 renal = tested on: TK-10 renal
SK-MEL-28 melanoma = tested on: SK-MEL-28 melanoma
UACC-257 melanoma = tested on: UACC-257 melanoma
MALME-3M melanoma = tested on: MALME-3M melanoma
UACC-62 melanoma = tested on: UACC-62 melanoma
T-47D breast = tested on: T-47D breast
NCI-H226 lung = tested on: NCI-H226 lung
OVCAR-3 ovarian = tested on: OVCAR-3 ovarian
SN12C renal = tested on: SN12C renal

## CCCCOc1ccc(S(=O)(=O)N2CCN(c3nccc(N4CCOCC4)n3)CC2)cc1
A549 NSCLC
  GI50: 654 nM
  TGI: > 100000 nM
HL-60(TB) leukemia
  GI50: 476 nM
  TGI: > 100000 nM
M14 melanoma
  GI50: 2710 nM
  TGI: > 100000 nM
RPMI-8226 leukemia
  GI50: 422 nM
  TGI: 5590 nM
OVCAR-4 ovarian
  GI50: 4730 nM
  TGI: > 100000 nM
MCF7 breast
  GI50: > 100000 nM
  TGI: > 100000 nM
SR leukemia
  GI50: 2770 nM
  TGI: > 100000 nM
PC-3 prostate
  GI50: 3150 nM
  TGI: > 100000 nM
MOLT-4 leukemia
  GI50: 1400 nM
  TGI: > 100000 nM
KM12 colon
  GI50: 1570 nM
  TGI: > 100000 nM
CAKI-1 renal
  GI50: 1760 nM
  TGI: > 100000 nM
K-562 leukemia
  GI50: 3300 nM
  TGI: > 100000 nM
ACHN renal
  GI50: 1920 nM
  TGI: > 100000 nM
HOP-62 NSCLC
  GI50: 16300 nM
  TGI: > 100000 nM
NCI-H522 lung
  GI50: > 100000 nM
  TGI: > 100000 nM
HCT-116 colon
  GI50: 484 nM
  TGI: > 100000 nM
OVCAR-8 ovarian
  GI50: 4040 nM
  TGI: > 100000 nM
HCT-15 colon
  GI50: 1710 nM
  TGI: > 100000 nM
CCRF-CEM leukemia
  GI50: 3440 nM
  TGI: > 100000 nM
NCI/ADR-RES ovarian
  GI50: 2020 nM
  TGI: > 100000 nM
SF-539 CNS
  GI50: 4090 nM
  TGI: > 100000 nM
HS 578T breast
  GI50: 3020 nM
  TGI: > 100000 nM
BT-549 breast
  GI50: 2450 nM
  TGI: > 100000 nM
DU-145 prostate
  GI50: 524 nM
  TGI: > 100000 nM
SK-OV-3 ovarian
  GI50: 2780 nM
  TGI: > 100000 nM
NCI-H460 lung
  GI50: 481 nM
  TGI: > 100000 nM
SNB-19 CNS
  GI50: 6650 nM
  TGI: > 100000 nM
MDA-MB-435
  GI50: 1500 nM
  TGI: > 100000 nM
HOP-92 NSCLC
  GI50: 1800 nM
  TGI: 6910 nM
HT29 colon
  GI50: 538 nM
  TGI: > 100000 nM
OVCAR-5 ovarian
  GI50: > 100000 nM
  TGI: > 100000 nM
HCC-2998 colon
  GI50: 1840 nM
  TGI: > 100000 nM
786-0 renal
  GI50: 2700 nM
  TGI: > 100000 nM
SNB-75 CNS
  GI50: 1770 nM
  TGI: 4390 nM

## COc1ccc([C@@H]2[C@@H](O)C(=O)N2c2cc(OC)c(OC)c(OC)c2)cc1Cl
A549 NSCLC
  GI50: < 19.3 nM
  TGI: > 100000 nM
UO-31 renal
  GI50: < 23.6 nM
  TGI: > 100000 nM
LOX IMVI melanoma
  GI50: < 11.4 nM
  TGI: > 100000 nM
HL-60(TB) leukemia
  GI50: < 15.9 nM
  TGI: 1830 nM
SK-MEL-5 melanoma
  GI50: < 14.9 nM
  TGI: 38 nM
M14 melanoma
  GI50: < 17.1 nM
  TGI: > 100000 nM
RPMI-8226 leukemia
  GI50: < 21.7 nM
MDA-MB-231 breast
  GI50: < 18.7 nM
  TGI: > 100000 nM
OVCAR-4 ovarian
  GI50: 2160 nM
  TGI: > 100000 nM
SW-620 colon
  GI50: < 19.2 nM
  TGI: > 100000 nM
MCF7 breast
  GI50: < 10 nM
  TGI: > 92000 nM
SR leukemia
  GI50: < 10.7 nM
  TGI: > 100000 nM
PC-3 prostate
  GI50: < 19.7 nM
  TGI: > 100000 nM
IGROV1 ovarian
  GI50: < 20.3 nM
  TGI: > 100000 nM
MOLT-4 leukemia
  GI50: < 20 nM
  TGI: > 100000 nM
KM12 colon
  GI50: < 16.3 nM
  TGI: > 100000 nM
CAKI-1 renal
  GI50: < 12.2 nM
K-562 leukemia
  GI50: < 14.3 nM
  TGI: > 100000 nM
U251 CNS
  GI50: < 17.8 nM
  TGI: > 100000 nM
NCI-H23 lung
  GI50: 35.3 nM
  TGI: > 100000 nM
ACHN renal
  GI50: < 14.4 nM
  TGI: > 100000 nM
HOP-62 NSCLC
  GI50: < 20.1 nM
  TGI: > 100000 nM
RXF 393 renal
  GI50: 43.1 nM
  TGI: > 100000 nM
NCI-H522 lung
  GI50: < 10 nM
  TGI: < 17.2 nM
HCT-116 colon
  GI50: < 14.9 nM
  TGI: > 100000 nM
OVCAR-8 ovarian
  GI50: < 17.9 nM
HCT-15 colon
  GI50: < 16.9 nM
  TGI: > 100000 nM
CCRF-CEM leukemia
  GI50: < 18.5 nM
  TGI: > 100000 nM
NCI/ADR-RES ovarian
  GI50: < 15.2 nM
  TGI: 95.9 nM
SF-539 CNS
  GI50: < 10 nM
  TGI: 49.1 nM
COLO 205 colon
  GI50: < 15.6 nM
  TGI: < 23.9 nM
SF-295 CNS
  GI50: < 11.1 nM
  TGI: > 100000 nM
HS 578T breast
  GI50: < 22.6 nM
  TGI: > 100000 nM
BT-549 breast
  GI50: < 14.4 nM
  TGI: 66.8 nM
A498 renal
  GI50: 21700 nM
  TGI: > 100000 nM
DU-145 prostate
  GI50: < 19 nM
  TGI: > 100000 nM
EKVX NSCLC
  TGI: > 100000 nM
SF-268 CNS
  GI50: < 21.6 nM
  TGI: > 100000 nM
TK-10 renal
  GI50: > 54900 nM
  TGI: > 100000 nM
SK-OV-3 ovarian
  GI50: < 22.9 nM
  TGI: > 51300 nM
NCI-H460 lung
  GI50: < 18.9 nM
SK-MEL-28 melanoma
  GI50: 146 nM
  TGI: > 100000 nM
SNB-19 CNS
  GI50: < 24.1 nM
  TGI: > 100000 nM
MDA-MB-435
  GI50: < 10 nM
  TGI: 24.8 nM
UACC-257 melanoma
  GI50: > 100000 nM
  TGI: > 100000 nM
HOP-92 NSCLC
  GI50: 16200 nM
  TGI: > 100000 nM
HT29 colon
  GI50: < 10 nM
OVCAR-5 ovarian
  GI50: < 18.6 nM
  TGI: > 100000 nM
MALME-3M melanoma
  GI50: 219 nM
  TGI: > 100000 nM
UACC-62 melanoma
  GI50: < 10 nM
  TGI: > 100000 nM
HCC-2998 colon
  GI50: < 19.4 nM
T-47D breast
  GI50: 33100 nM
  TGI: > 100000 nM
786-0 renal
  GI50: < 19.8 nM
  TGI: > 100000 nM
NCI-H226 lung
  GI50: < 10 nM
  TGI: 75.3 nM
OVCAR-3 ovarian
  GI50: < 10 nM
  TGI: 171 nM
SNB-75 CNS
  GI50: 26.2 nM
  TGI: > 100000 nM
SN12C renal
  GI50: < 19.3 nM
  TGI: > 100000 nM
